Assay results taken from PubChem BioAssay AID2060509 (Molecular Pharmacology Branch, DTP, NCI, 2025).

System: 485176-168-R4-J1-PDC spheroids with HUVEC/MSC, viability
Assay: Anticancer human tumor 485176-168-R4-J1-PDC patient-derived pancreatic adenocarcinoma cell line growth inhibition [GQUAD]
Conditions: for IC50: curve of first compound; for viability, T/C: stronger effect = lower value; active = viability on the fitted dose curve at most 10% of control; inactive = the rest
From the text: DNA G-quadruplex Stabilizer Agents in Combinations in Complex Spheroids
A high-throughput screen of multi-cell type tumor spheroids was designed to identify active combinations of DNA G-quadruplex stabilizer agents and targeted small molecules. Complex spheroids include a stromal component modeled by human endothelial cells (HUVEC) and fibroblasts modeled by human mesenchymal stem cells (MSCs). The concentration ranges selected for each drug and investigational agent were based upon clinically achievable concentrations if the clinical Cmax of the agent was known.
Compounds. The drugs and investigational agents: pidnarulex (CX-5461; NSC782164), APTO-253 (NSC789042), BRACO-19 (NSC847499), peposertib (NSC802822), ceralasertib (NSC780249), elimusertib (NSC800525), camonsertib (NSC841442), AZD-1390 (NSC803789), olaparib (NSC753686), talazoparib (NSC767125), ART-558 (NSC835418), sotorasib (NSC818433), MRTX-1133 (NSC836407), SN-38 (NSC673596), topotecan (NSC609699), etoposide (NSC141540), doxorubicin (NSC123127), gemcitabine (NSC613327), 5-fluorouracil (NSC19893), paclitaxel (NSC125973), vemurafenib (NSC761431), panobinostat (NSC761190), R-306465 (JNJ-16241199; NSC773264), adavosertib (NSC754352), TP-3654 (NSC805149), carboplatin (NSC241240), KSQ-4279 (NSC840948), and staurosporine (NSC755774) were obtained from the National Cancer Institute (NCI) Developmental Therapeutics Program Chemical Repository (34). The FDA-approved anticancer drug set is available from the NCI Developmental Therapeutics Program. […] The stock solutions were prepared in dimethyl sulfoxide (DMSO, Sigma-Aldrich, St. Louis, MO, cat. D2650) at 800-fold the tested concentration and stored at -70 degrees C prior to their use. All drugs and investigational agents were tested over a range starting from a high concentration at or near the clinical Cmax and decreasing in half-log increments. If the clinical Cmax for an agent had not been determined, the highest concentration tested was 10 microM.
2.3 Cell Culture. All cells were maintained in an incubator at 37 degrees C and 5% CO2 with 95% humidity. The PDC lines were cultured according to standard operating procedures established by the NCI PDMR. All PDCs were thawed and cultured in Matrigel-coated flasks prepared with a working solution of 1X Ham's F-12 nutrient mix, without supplementation (Invitrogen, cat. 11765054), 100 U/mL penicillin-streptomycin (Invitrogen, cat. 15140122), and 2.5% Matrigel (Corning Inc., cat. 354248) for the first three passages. The 857933-349-R-J2-PDC line was cultured in 6C/Colon 1B media, which includes advanced DMEM/F-12 (Thermo Fisher Scientific, cat. 12634028), 10 mM HEPES (Thermo Fisher Scientific, cat. 15630080), 1X GlutaMAX supplement (Thermo Fisher Scientific, cat. 35050061), 0.1 mg/mL primocin (InvivoGen, cat. ant-pm-2), 10% defined fetal bovine serum, heat inactivated (HyClone Laboratories Inc., cat. SH30070.03HI), 50% L-WRN conditioned media (ATCC, cat. CRL-3276), 1.25 mM N-Acetyl-L-cysteine (Sigma-Aldrich, cat. A9165), 10 mM nicotinamide (Sigma-Aldrich, cat. N0636), 1X B-27 supplement (Thermo Fisher Scientific, cat. 17504044), 1X N-2 supplement (Thermo Fisher Scientific, cat. 17502048), 10 microM Y-27632 dihydrochloride (Tocris Bioscience, cat. 1254), and 50 ng/mL human EGF recombinant protein (Thermo Fisher Scientific, cat. PHG0311). The 485176-168-R4-J1-PDC line was cultured in Panc media, which includes all 6C/Colon 1B media components plus 100 ng/mL human FGF-10 (Thermo Fisher Scientific, cat. 100-26), 500 nM SB-431542 (Selleckchem, cat. S1067), and gastrin (Tocris, cat. 3006).
[…]

[1] = second compound 0.0316 µM, first compound 0.0316 µM
[2] = second compound 0.0316 µM, first compound 0.1 µM
[3] = second compound 0.0316 µM, first compound 0.316 µM
[4] = second compound 0.0316 µM, first compound 1 µM
[5] = second compound 0.0316 µM, first compound 3.16 µM
[6] = second compound 0.0316 µM, first compound 10 µM
[7] = second compound 0.1 µM, first compound 0.0316 µM
[8] = second compound 0.1 µM, first compound 0.1 µM
[9] = second compound 0.1 µM, first compound 0.316 µM
[10] = second compound 0.1 µM, first compound 1 µM
[11] = second compound 0.1 µM, first compound 3.16 µM
[12] = second compound 0.1 µM, first compound 10 µM
[13] = second compound 0.316 µM, first compound 0.0316 µM
[14] = second compound 0.316 µM, first compound 0.1 µM
[15] = second compound 0.316 µM, first compound 0.316 µM
[16] = second compound 0.316 µM, first compound 1 µM
[17] = second compound 0.316 µM, first compound 3.16 µM
[18] = second compound 0.316 µM, first compound 10 µM
[19] = second compound 1 µM, first compound 0.0316 µM
[20] = second compound 1 µM, first compound 0.1 µM
[21] = second compound 1 µM, first compound 0.316 µM
[22] = second compound 1 µM, first compound 1 µM
[23] = second compound 1 µM, first compound 3.16 µM
[24] = second compound 1 µM, first compound 10 µM
[25] = second compound 3.16 µM, first compound 0.0316 µM
[26] = second compound 3.16 µM, first compound 0.1 µM
[27] = second compound 3.16 µM, first compound 0.316 µM
[28] = second compound 3.16 µM, first compound 1 µM
[29] = second compound 3.16 µM, first compound 3.16 µM
[30] = second compound 3.16 µM, first compound 10 µM
[31] = second compound 10 µM, first compound 0.0316 µM
[32] = second compound 10 µM, first compound 0.1 µM
[33] = second compound 10 µM, first compound 0.316 µM
[34] = second compound 10 µM, first compound 1 µM
[35] = second compound 10 µM, first compound 3.16 µM
[36] = second compound 10 µM, first compound 10 µM
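Note: spheroids exposed to compounds for seven days before readout.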
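Throughout, for viability, T/C: percent viability relative to DMSO vehicle control wells as 100%.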

CC(=O)O[C@H]1C(=O)[C@@]2(C)[C@H]([C@H](OC(=O)c3ccccc3)[C@]3(O)C[C@H](OC(=O)[C@H](O)[C@@H](NC(=O)c4ccccc4)c4ccccc4)C(C)=C1C3(C)C)[C@]1(OC(C)=O)CO[C@@H]1C[C@@H]2O + Cc1[nH]c2ccc(F)cc2c1-c1nc2c3cccnc3c3ncccc3c2[nH]1
inactive: viability, T/C [1] 29.9% | viability, T/C [2] 10.3% | viability, T/C [3] 10.7% | viability, T/C [4] 10.7% | viability, T/C [5] 10.6% | viability, T/C [6] 11.5% | viability, T/C [7] 29.6% | viability, T/C [8] 13.1% | viability, T/C [9] 16% | viability, T/C [10] 12.4% | viability, T/C [11] 12.3% | viability, T/C [12] 10% | viability, T/C [13] 24.9% | viability, T/C [14] 14.4% | viability, T/C [15] 14.9% | viability, T/C [16] 9.44% | viability, T/C [17] 12.5% | viability, T/C [18] 11.7% | viability, T/C [19] 28.6% | viability, T/C [20] 13.2% | viability, T/C [21] 12% | viability, T/C [22] 13.2% | viability, T/C [23] 9.22% | viability, T/C [24] 10.8% | viability, T/C [25] 24.5% | viability, T/C [26] 12.1% | viability, T/C [27] 13.4% | viability, T/C [28] 12.2% | viability, T/C [29] 11.3% | viability, T/C [30] 11.8% | viability, T/C [31] 28% | viability, T/C [32] 9.49% | viability, T/C [33] 14.4% | viability, T/C [34] 14.4% | viability, T/C [35] 11.1% | viability, T/C [36] 12.1%
< 31.6 nM: IC50 (second compound 0.0316 µM) | IC50 (second compound 0.1 µM) | IC50 (second compound 0.316 µM) | IC50 (second compound 1 µM) | IC50 (second compound 3.16 µM) | IC50 (second compound 10 µM)

COc1ccc([C@@H](O)c2cc(-c3ncnc4cc(N5CCOCC5)ccc34)c(F)cc2Cl)nn1 + Cc1[nH]c2ccc(F)cc2c1-c1nc2c3cccnc3c3ncccc3c2[nH]1
3660 nM: IC50 (second compound 0.316 µM)
1760 nM: IC50 (second compound 10 µM)
1850 nM: IC50 (second compound 3.16 µM)
2520 nM: IC50 (second compound 1 µM)
inactive: viability, T/C [1] 83.4% | viability, T/C [2] 98.8% | viability, T/C [3] 91.8% | viability, T/C [4] 69.8% | viability, T/C [5] 51.6% | viability, T/C [6] 31.4% | viability, T/C [7] 91.9% | viability, T/C [8] 90.2% | viability, T/C [9] 94.7% | viability, T/C [10] 68.6% | viability, T/C [11] 48.7% | viability, T/C [12] 27.7% | viability, T/C [13] 91.2% | viability, T/C [14] 88.9% | viability, T/C [15] 82% | viability, T/C [16] 86.6% | viability, T/C [17] 53.2% | viability, T/C [18] 28.1% | viability, T/C [19] 81% | viability, T/C [20] 79% | viability, T/C [21] 94.2% | viability, T/C [22] 66.5% | viability, T/C [23] 46.5% | viability, T/C [24] 22.4% | viability, T/C [25] 98.5% | viability, T/C [26] 87.9% | viability, T/C [27] 74.4% | viability, T/C [28] 63.2% | viability, T/C [29] 39.1% | viability, T/C [30] 21.3% | viability, T/C [31] 97.4% | viability, T/C [32] 78.3% | viability, T/C [33] 76% | viability, T/C [34] 56% | viability, T/C [35] 45.7% | viability, T/C [36] 21.1%
2690 nM: IC50 (second compound 0.1 µM)
3020 nM: IC50 (second compound 0.0316 µM)

COc1cccc2c1C(=O)c1c(O)c3c(c(O)c1C2=O)CC(O)(C(=O)CO)CC3OC1CC(N)C(O)C(C)O1 (stereo unspecified) + Cc1[nH]c2ccc(F)cc2c1-c1nc2c3cccnc3c3ncccc3c2[nH]1
inactive: viability, T/C [1] 90.1% | viability, T/C [2] 71.5% | viability, T/C [3] 61.1% | viability, T/C [4] 14.7% | viability, T/C [7] 106% | viability, T/C [8] 71.6% | viability, T/C [9] 49.5% | viability, T/C [10] 23.3% | viability, T/C [13] 81.4% | viability, T/C [14] 65.9% | viability, T/C [15] 47.4% | viability, T/C [16] 23.6% | viability, T/C [19] 86.1% | viability, T/C [20] 72.5% | viability, T/C [21] 60.9% | viability, T/C [22] 26.8% | viability, T/C [25] 82.9% | viability, T/C [26] 59.3% | viability, T/C [27] 52% | viability, T/C [28] 24.9% | viability, T/C [29] 19.5% | viability, T/C [31] 82% | viability, T/C [32] 70.6% | viability, T/C [33] 50.8% | viability, T/C [34] 21.8%
259 nM: IC50 (second compound 0.316 µM)
433 nM: IC50 (second compound 1 µM)
314 nM: IC50 (second compound 10 µM)
249 nM: IC50 (second compound 3.16 µM)
391 nM: IC50 (second compound 0.0316 µM)
267 nM: IC50 (second compound 0.1 µM)
active: viability, T/C [5] 4.77% | viability, T/C [6] 0.13% | viability, T/C [11] 3.92% | viability, T/C [12] 0.39% | viability, T/C [17] 3.52% | viability, T/C [18] 0.18% | viability, T/C [23] 4.08% | viability, T/C [24] 0.14% | viability, T/C [30] 0.2% | viability, T/C [35] 3.95% | viability, T/C [36] 0.38%
